This note sets out measurements from US12522594B2, “2-heteroaryl-3-oxo-2,3-dihydropyridazine-4-carboxamides for the treatment of cancer” (Deutsches Krebsforschungszentrum, priority 2017, dated 2026).

Test [1] concerns the target T1, AHR (Homo sapiens, UniProt P35869).
T1 sequence (P35869 11-848): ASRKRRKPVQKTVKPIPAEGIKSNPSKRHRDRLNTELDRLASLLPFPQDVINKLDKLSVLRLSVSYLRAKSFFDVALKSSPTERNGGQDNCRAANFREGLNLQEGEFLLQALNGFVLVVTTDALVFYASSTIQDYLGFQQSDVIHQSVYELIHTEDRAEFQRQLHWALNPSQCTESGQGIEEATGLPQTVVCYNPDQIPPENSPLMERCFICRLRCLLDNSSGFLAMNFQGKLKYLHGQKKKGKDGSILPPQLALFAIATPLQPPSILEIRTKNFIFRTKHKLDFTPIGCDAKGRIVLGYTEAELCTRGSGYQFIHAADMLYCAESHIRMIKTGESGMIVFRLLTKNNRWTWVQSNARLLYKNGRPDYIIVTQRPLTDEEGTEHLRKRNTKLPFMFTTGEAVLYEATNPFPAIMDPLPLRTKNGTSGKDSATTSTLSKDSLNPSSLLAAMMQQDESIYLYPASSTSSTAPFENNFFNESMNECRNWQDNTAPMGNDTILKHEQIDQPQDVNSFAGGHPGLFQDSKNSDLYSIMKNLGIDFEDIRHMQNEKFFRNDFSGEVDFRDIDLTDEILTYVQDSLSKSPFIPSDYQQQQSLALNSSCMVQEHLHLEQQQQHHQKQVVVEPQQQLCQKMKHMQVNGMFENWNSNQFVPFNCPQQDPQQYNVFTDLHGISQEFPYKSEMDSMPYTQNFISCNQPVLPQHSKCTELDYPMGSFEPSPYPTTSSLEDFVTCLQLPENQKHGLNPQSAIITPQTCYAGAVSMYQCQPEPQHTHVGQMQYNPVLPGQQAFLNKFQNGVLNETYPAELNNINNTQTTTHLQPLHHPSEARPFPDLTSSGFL
The test is described as follows: In vitro assay 2: agonism in human cell line (transactivation assay, U87 cells, DRE firefly luciferase reporter). It is filed as cell-based. Details: host or cells: U87 glioblastoma cells, stably transfected with DRE firefly luciferase and renilla reporter constructs. As to conditions: no kynurenic acid, 20 hours, read-out: Assay 2: AHR-luc Hum Agonism IC50. A digest of the protocol: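 Agonist readout: DRE firefly luciferase, with constitutive renilla reporter, in stably transfected U87 cells expressing AHR endogenously. Normalization used positive control (300 uM kynurenic acid) and negative control.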
(A reporter such as luciferase makes a cellular process visible.)

Test [2] concerns the target T1, AHR. The test is described as follows: In vitro assay 1: antagonism in human cell line (transactivation assay, U87 cells prestimulated with kynurenic acid, DRE firefly luciferase reporter). Type of test: cell-based. On the set-up: host or cells: U87 glioblastoma cells, stably transfected with DRE firefly luciferase and renilla reporter constructs. As to conditions: 150 uM kynurenic acid, 20 hours, read-out: Assay 1: AHR-luc Hum Antagonism IC50. A digest of the protocol: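 Antagonism measured after kynurenic acid prestimulation in U87 cells that express AHR endogenously and stably harbor a firefly luciferase gene under DRE control plus a constitutive renilla construct. Positive and negative controls served for normalization.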

The structures appear in SMILES notation. Bounds are passed on as bounds.

By IC50 is commonly meant the concentration that gives 50% inhibition. Take `O=C(N[C@H]1COC[C@@H]1O)c1cc(-c2ccc(Cl)cc2)nn(-c2cncc(F)c2)c1=O` (single isomer, unassigned; enantiomer 1) [Example 155, 6-(4-Chlorophenyl)-2-(5-fluoropyridin-3-yl)-N-[(trans)-4-hydroxytetrahydrofuran-3-yl]-3-oxo-2,3-dihydropyridazine-4-carboxamide, Enantiomer 1]: the IC50 at AHR [1] was above 20 µM; on AHR [2], 0.0905 µM.

In the case of `C[C@H](NC(=O)c1cc(-c2ccc(OC(F)F)cc2)nn(-c2cccnc2)c1=O)C(C)(C)O` [Example 333, 6-[4-(Difluoromethoxy)phenyl]-N-[(2S)-3-hydroxy-3-methylbutan-2-yl]-3-oxo-2-(pyridin-3-yl)-2,3-dihydropyridazine-4-carboxamide], the IC50 at AHR [1] was above 20 µM; at AHR [2] it was 0.0749 µM.

Turning to `O=C(N[C@H]1COC[C@H]1O)c1cc(-c2ccc(C(F)F)nc2)nn(-c2cccnc2)c1=O` (relative stereo) [Example 182, 6-[6-(Difluoromethyl)pyridin-3-yl]-N-[(cis)-4-hydroxytetrahydrofuran-3-yl]-3-oxo-2-(pyridin-3-yl)-2,3-dihydropyridazine-4-carboxamide], the IC50 on AHR [1] is above 20 µM; at AHR [2], 6.11 µM.

Regarding `Cn1cc(-n2nc(-c3ccc(C(F)(F)F)cc3)cc(C(=O)NC[C@H](O)CF)c2=O)cn1` [Example 245, N-[(2S)-3-Fluoro-2-hydroxypropyl]-2-(1-methyl-1H-pyrazol-4-yl)-3-oxo-6-[4-(trifluoromethyl)phenyl]-2,3-dihydropyridazine-4-carboxamide], the results for the IC50 on AHR [1] and on AHR [2] were above 20 µM and 0.0128 µM, respectively.

Take `O=C(N[C@H](CO)C(F)(F)F)c1cc(-c2ccc(Cl)cc2)nn(-c2cnn(C(F)F)c2)c1=O` [Example 236, 6-(4-Chlorophenyl)-2-[1-(difluoromethyl)-1H-pyrazol-4-yl]-3-oxo-N-[(2R)-1,1,1-trifluoro-3-hydroxypropan-2-yl]-2,3-dihydropyridazine-4-carboxamide]: the IC50 at AHR [1] is above 20 µM; at AHR [2], 0.00903 µM.

As to `Cc1cc(-n2nc(-c3ccc(Cl)cc3)cc(C(=O)NC[C@H](O)C(F)(F)F)c2=O)cs1` [Example 225, 6-(4-Chlorophenyl)-2-(5-methyl-3-thienyl)-3-oxo-N-[(2S)-3,3,3-trifluoro-2-hydroxypropyl]-2,3-dihydropyridazine-4-carboxamide], the values for the IC50 at AHR [1] and at AHR [2] were above 20 µM and 0.00504 µM, respectively.

Take `CC(C)(O)C(NC(=O)c1cc(-c2ccc(Cl)cc2)nn(-c2cccnc2)c1=O)C(F)(F)F` (stereo not shown) [Example 121, 6-(4-Chlorophenyl)-3-oxo-2-(pyridin-3-yl)-N-(1,1,1-trifluoro-3-hydroxy-3-methylbutan-2-yl)-2,3-dihydropyridazine-4-carboxamide]: the IC50 was above 20 µM on AHR [1] and 0.00254 µM at AHR [2].

`O=C(N[C@H](CO)CF)c1cc(-c2ccc(C(F)(F)F)cc2)nn(-c2cccnc2)c1=O` [Example 221, N-[(2R)-1-Fluoro-3-hydroxypropan-2-yl]-3-oxo-2-(pyridin-3-yl)-6-[4-(trifluoromethyl)phenyl]-2,3-dihydropyridazine-4-carboxamide]: the IC50 on AHR [1] was above 20 µM; at AHR [2], 0.00363 µM.

As for `C[C@H](NC(=O)c1cc(-c2ccc(CF)cc2)nn(-c2cccnc2)c1=O)C(C)(C)O` [Example 288, 6-[4-(Fluoromethyl)phenyl]-N-[(2S)-3-hydroxy-3-methylbutan-2-yl]-3-oxo-2-(pyridin-3-yl)-2,3-dihydropyridazine-4-carboxamide], the IC50 at AHR [1] was above 20 µM; on AHR [2] it was 0.82 µM.

Consider `C[C@@H](CO)NC(=O)c1cc(-c2ccc(C(F)(F)F)nc2)nn(-c2cnsc2)c1=O` [Example 251, N-[(2S)-1-Hydroxypropan-2-yl]-3-oxo-2-(1,2-thiazol-4-yl)-6-[6-(trifluoromethyl)pyridin-3-yl]-2,3-dihydropyridazine-4-carboxamide], for which the IC50 on AHR [1] is above 20 µM; at AHR [2], 0.0179 µM.

Take `CC(C)(O)C(NC(=O)c1cc(-c2ccc(OC(F)(F)F)cc2)nn(-c2cccnc2)c1=O)C(F)(F)F` (single isomer, unassigned; enantiomer 1) [Example 136, 3-Oxo-2-(pyridin-3-yl)-N-[1,1,1-trifluoro-3-hydroxy-3-methylbutan-2-yl]-6-[4-(trifluoromethoxy)phenyl]-2,3-dihydropyridazine-4-carboxamide, Enantiomer 1]: the IC50 at AHR [1] was above 20 µM; at AHR [2], 0.0604 µM.

In the case of `C[C@H](NC(=O)c1cc(-c2ccc(Cl)cc2)nn(-c2cnn(C)c2)c1=O)C(C)(C)O` [Example 316, 6-(4-Chlorophenyl)-N-[(2S)-3-hydroxy-3-methylbutan-2-yl]-2-(1-methyl-1H-pyrazol-4-yl)-3-oxo-2,3-dihydropyridazine-4-carboxamide], the IC50 is above 20 µM at AHR [1] and 0.0206 µM on AHR [2].

For the molecule `O=C(N[C@@H]1CCCC[C@@H]1O)c1cc(-c2ccc(Cl)cc2)nn(-c2cccnc2)c1=O` (relative stereo) [Example 133, 6-(4-Chlorophenyl)-N-[(cis)-2-hydroxycyclohexyl]-3-oxo-2-(pyridin-3-yl)-2,3-dihydropyridazine-4-carboxamide], the IC50 on AHR [1] was above 20 µM; at AHR [2], 0.00752 µM.

As to `O=C(N[C@H]1CCCC(F)(F)[C@@H]1O)c1cc(-c2ccc(Cl)cc2)nn(-c2cccnc2)c1=O` (single isomer, unassigned; enantiomer 2) [Example 145, 6-(4-Chlorophenyl)-N-[(trans)-3,3-difluoro-2-hydroxycyclohexyl]-3-oxo-2-(pyridin-3-yl)-2,3-dihydropyridazine-4-carboxamide, Enantiomer 2], the values for the IC50 on AHR [1] and at AHR [2] were above 20 µM and 0.0069 µM, respectively.

Consider `O=C(NC[C@H](O)C(F)(F)F)c1cc(-c2ccc(Cl)cc2)nn(-c2cnoc2)c1=O` [Example 235, 6-(4-Chlorophenyl)-2-(1,2-oxazol-4-yl)-3-oxo-N-[(2S)-3,3,3-trifluoro-2-hydroxypropyl]-2,3-dihydropyridazine-4-carboxamide], for which the half-inhibitory concentration (IC50) on AHR [1] is above 20 µM; on AHR [2] it was 0.00887 µM.

As to `O=C(N[C@H](CO)C(F)(F)F)c1cc(-c2ccc(CF)cc2)nn(-c2cccnc2)c1=O` [Example 282, 6-[4-(Fluoromethyl)phenyl]-3-oxo-2-(pyridin-3-yl)-N-[(2R)-1,1,1-trifluoro-3-hydroxypropan-2-yl]-2,3-dihydropyridazine-4-carboxamide], the figures for the IC50 on AHR [1] and at AHR [2] were above 20 µM and 0.304 µM, respectively.

On to `O=C(NCC1(O)CC1)c1cc(-c2ccc(Cl)cc2)nn(-c2cccnc2)c1=O` [Example 263, 6-(4-Chlorophenyl)-N-[(1-hydroxycyclopropyl)methyl]-3-oxo-2-(pyridin-3-yl)-2,3-dihydropyridazine-4-carboxamide], for which the IC50 at AHR [1] was above 20 µM; on AHR [2], 0.0419 µM.

Regarding `Cn1cc(-n2nc(-c3ccc(C(F)F)nc3)cc(C(=O)N[C@H]3CCCC[C@H]3O)c2=O)cn1` [Example 54, 6-[6-(Difluoromethyl)pyridin-3-yl]-N-[(1S,2R)-2-hydroxycyclohexyl]-2-(1-methyl-1H-pyrazol-4-yl)-3-oxo-2,3-dihydropyridazine-4-carboxamide], the values for the IC50 on AHR [1] and at AHR [2] were above 20 µM and 0.0143 µM, respectively.

With `O=C(N[C@H]1COC[C@H]1O)c1cc(-c2ccc(C(F)F)nc2)nn(-c2cccnc2)c1=O` (single isomer, unassigned) [Example 183, 6-[6-(Difluoromethyl)pyridin-3-yl]-N-[(cis)-4-hydroxytetrahydrofuran-3-yl]-3-oxo-2-(pyridin-3-yl)-2,3-dihydropyridazine-4-carboxamide], the figures for the IC50 at AHR [1] and at AHR [2] were above 20 µM and 1.97 µM, respectively.

Take `C[C@@H](CO)NC(=O)c1cc(-c2ccc(Cl)cc2)nn(-c2cncc(Cl)c2)c1=O` [Example 303, 6-(4-Chlorophenyl)-2-(5-chloropyridin-3-yl)-N-[(2S)-1-hydroxypropan-2-yl]-3-oxo-2,3-dihydropyridazine-4-carboxamide]: the IC50 at AHR [1] was above 20 µM; at AHR [2], 0.133 µM.
